Consider five compounds from ChEMBL document CHEMBL5370605, “Discovery of Novel Fedratinib-Based HDAC/JAK/BRD4 Triple Inhibitors with Remarkable Antitumor Activity against Triple Negative Breast Cancer” (J Med Chem, 2023).

Data set [1] can be described thus: in vitro. The settings on record: human, GES1 cells.
A short description of data set [2]: Selectivity index, ratio of IC50 for human GES-1 cells to IC50 for human MDA-MB-231 cells.
For data set [3], the system named is MDA-MB-231. Description: cells. Conditions: Homo sapiens, MDA-MB-231, 48 h.
Data set [4] deals with Bromodomain-containing protein 4 (Homo sapiens, UniProt O60885). Description: Inhibition of recombinant BRD4 BD1 (unknown origin) using H4KAc as substrate incubated for 30 mins by HTRF analysis.
Data set [5] concerns the target Histone deacetylase 1 (Homo sapiens, UniProt Q13547). Description: Inhibition of HDAC1 (unknown origin) using Boc-Lys(Ac)-AMC as substrate incubated for 30 mins by fluorescence based analysis.
For data set [6], the target named is Tyrosine-protein kinase JAK1 (Homo sapiens, UniProt P23458). Description: Inhibition of JAK1 (unknown origin) incubated for 40 mins in presence of ATP by Kinase-glo luminescent assay.
Data set [7] is described as follows: Cmax in ICR (CD-1) mouse at 10 mg/kg, iv measured for 24 hrs by LC-MS/MS analysis. It counts as ADME, organism-based. Set-up: time 24 hrs, dose 10 mg/kg, route iv. Conditions: in vivo.
The nature of data set [8]: In vivo inhibition of BRD4 in athymic BALB/c nude mouse xenografted with human MDA-MB-231 cells assessed as fold change in c-Myc level in tumor at 25 mg/kg, ip administered for 28 consecutive days by Western blot analysis (reference value: 1). It counts as functional. The settings on record: time 28 day.
Data set [9] can be described thus: In vivo inhibition of JAK1 in athymic BALB/c nude mouse xenografted with human MDA-MB-231 cells assessed as fold change in STAT3 level in tumor at 25 mg/kg, ip administered for 28 consecutive days by Western blot analysis (reference value: 1). The data set is classed as functional. The settings on record: time 28 day.
Data set [10] is described as follows: In vivo inhibition of HDAC1 in athymic BALB/c nude mouse xenografted with human MDA-MB-231 cells assessed as fold change in acetyl-histone H3 level in tumor at 25 mg/kg, ip administered for 28 consecutive days by Western blot analysis (reference value: 1). It counts as functional. The settings on record: time 28 day.
Data set [11] in a line: Volume of distribution at steady state in ICR (CD-1) mouse at 10 mg/kg, iv measured for 24 hrs by LC-MS/MS analysis. It counts as ADME, organism-based. Conditions: in vivo.
A short description of data set [12]: Cmax in ICR (CD-1) mouse at 50 mg/kg, ip measured for 24 hrs by LC-MS/MS analysis. Conditions: in vivo. It counts as ADME, organism-based. Also on record: time 24 hrs, dose 50 mg/kg, route ip.
Data set [13] can be described thus: Tmax in ICR (CD-1) mouse at 50 mg/kg, ip measured for 24 hrs by LC-MS/MS analysis. The settings on record: in vivo. The data set is classed as ADME, organism-based.
The nature of data set [14]: In vivo inhibition of JAK1 in athymic BALB/c nude mouse xenografted with human MDA-MB-231 cells assessed as fold change in phosphorylated STAT3 level at Tyr705 residue in tumor at 25 mg/kg, ip administered for 28 consecutive days by Western blot analysis (reference value: 1). The data set is classed as functional. Conditions: time 28 day.
Data set [15] is described as follows: Toxicity in athymic BALB/c nude mouse xenografted with human MDA-MB-231 cells assessed as reduction in body weight at 50 mg/kg/day, ip administered for 2 days. It counts as organism-based. The settings on record: in vivo, 48 h, time 2 day.
A short description of data set [16]: Toxicity in athymic BALB/c nude mouse xenografted with human MDA-MB-231 cells assessed as reduction in body weight at 25 mg/kg/day, ip administered for 28 consecutive days. The data set is classed as organism-based. The settings on record: in vivo, 672 h, time 28 day.
Data set [17] is described as follows: Bioavailability in ICR (CD-1) mouse at 50 mg/kg, ip measured for 24 hrs by LC-MS/MS analysis. The data set is classed as ADME, organism-based. Conditions: ICR (CD-1), in vivo.
Data set [18] is described as follows: Cytotoxicity against human GES1 cells assessed as inhibition of cell growth incubated for 48 hrs in presence of SAHA by MTT assay. It counts as toxicity, cell-based.
Data set [19] is described as follows: AUC (0 to t) in ICR (CD-1) mouse at 50 mg/kg, ip measured for 24 hrs by LC-MS/MS analysis. Also on record: dose 50 mg/kg, time 24 hrs, route ip. It counts as ADME, organism-based. The settings on record: in vivo.
Data set [20] in a line: MRT (0 to t) in ICR (CD-1) mouse at 10 mg/kg, iv measured for 24 hrs by LC-MS/MS analysis. The settings on record: in vivo. It counts as ADME, organism-based.
A short description of data set [21]: AUC (0 to t) in ICR (CD-1) mouse at 10 mg/kg, iv measured for 24 hrs by LC-MS/MS analysis. Set-up: dose 10 mg/kg, time 24 hrs, route iv. It counts as ADME, organism-based. The settings on record: in vivo.
In data set [22] the test system is GES1. Briefly: Cytotoxicity against human GES1 cells at 1 uM incubated for 48 hrs by MTT assay. Conditions: ges1, 48 h. It counts as toxicity, cell-based.
Data set [23] deals with MDA-MB-231. Briefly: Antiproliferative activity against human MDA-MB-231 cells assessed as inhibition of cell growth incubated for 48 hrs in presence of SAHA by MTT assay. It counts as functional, cell-based. Conditions: MDA-MB-231, 48 h.
The test system of data set [24] is MDA-MB-231. Briefly: Antitumor activity against human MDA-MB-231 cells xenografted in athymic BALB/c nude mouse assessed as the tumor growth inhibition at 25 mg/kg/day, ip administered for 28 days and measured every 3 days by vernier caliper analysis relative to control. It counts as functional. The settings on record: MDA-MB-231, 672 h, time 28 day, read-out: TGI.

A short description of data set [25]: Half life in ICR (CD-1) mouse at 50 mg/kg, ip measured for 24 hrs by LC-MS/MS analysis. The data set is classed as ADME, organism-based. The settings on record: in vivo.
A short description of data set [26]: Half life in ICR (CD-1) mouse at 10 mg/kg, iv measured for 24 hrs by LC-MS/MS analysis. The settings on record: in vivo. It counts as ADME, organism-based.
Data set [27] in a line: Metabolic stability in mouse liver microsomes assessed as intrinsic clearance in presence of NADPH by LC-MS/MS analysis. The data set is classed as ADME, Microsome. The settings on record: read-out: CLH.
Data set [28] can be described thus: Metabolic stability in mouse liver microsomes assessed as half life in presence of NADPH by LC-MS/MS analysis. The data set is classed as ADME, Microsome.
The nature of data set [29]: MRT (0 to t) in ICR (CD-1) mouse at 50 mg/kg, ip measured for 24 hrs by LC-MS/MS analysis. The data set is classed as ADME, organism-based. The settings on record: in vivo.

Where only a bound is given, the exact number is not on record here.

Sequence of Tyrosine-protein kinase JAK1 (P23458 whole entry): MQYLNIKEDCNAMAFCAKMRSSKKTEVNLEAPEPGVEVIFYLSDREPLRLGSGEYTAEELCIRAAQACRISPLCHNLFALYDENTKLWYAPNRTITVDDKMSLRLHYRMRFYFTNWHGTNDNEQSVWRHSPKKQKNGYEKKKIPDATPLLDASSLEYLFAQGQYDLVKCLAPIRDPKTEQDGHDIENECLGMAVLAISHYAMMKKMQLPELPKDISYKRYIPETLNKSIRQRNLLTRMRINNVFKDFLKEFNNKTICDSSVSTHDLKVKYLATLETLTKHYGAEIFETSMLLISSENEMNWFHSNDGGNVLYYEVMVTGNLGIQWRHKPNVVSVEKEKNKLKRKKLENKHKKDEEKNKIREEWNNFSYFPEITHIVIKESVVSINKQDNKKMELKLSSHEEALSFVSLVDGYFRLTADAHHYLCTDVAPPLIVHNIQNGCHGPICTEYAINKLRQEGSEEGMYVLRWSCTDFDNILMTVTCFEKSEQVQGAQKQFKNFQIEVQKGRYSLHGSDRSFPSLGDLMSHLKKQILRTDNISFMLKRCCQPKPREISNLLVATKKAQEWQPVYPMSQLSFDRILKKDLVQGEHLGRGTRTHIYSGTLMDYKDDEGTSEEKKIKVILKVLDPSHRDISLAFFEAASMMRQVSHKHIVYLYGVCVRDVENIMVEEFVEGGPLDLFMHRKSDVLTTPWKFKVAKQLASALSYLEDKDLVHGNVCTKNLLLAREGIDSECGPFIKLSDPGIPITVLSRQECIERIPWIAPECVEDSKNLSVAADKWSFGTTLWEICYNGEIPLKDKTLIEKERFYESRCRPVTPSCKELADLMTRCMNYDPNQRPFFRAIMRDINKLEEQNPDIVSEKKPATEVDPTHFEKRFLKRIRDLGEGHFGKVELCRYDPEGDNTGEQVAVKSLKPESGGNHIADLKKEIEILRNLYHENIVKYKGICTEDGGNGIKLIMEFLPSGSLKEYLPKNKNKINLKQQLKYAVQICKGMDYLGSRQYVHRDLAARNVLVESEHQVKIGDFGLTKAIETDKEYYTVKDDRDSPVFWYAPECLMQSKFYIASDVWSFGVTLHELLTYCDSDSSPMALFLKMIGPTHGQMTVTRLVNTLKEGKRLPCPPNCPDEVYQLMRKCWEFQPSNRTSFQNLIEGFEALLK
Sequence of Histone deacetylase 1 (Q13547 whole entry): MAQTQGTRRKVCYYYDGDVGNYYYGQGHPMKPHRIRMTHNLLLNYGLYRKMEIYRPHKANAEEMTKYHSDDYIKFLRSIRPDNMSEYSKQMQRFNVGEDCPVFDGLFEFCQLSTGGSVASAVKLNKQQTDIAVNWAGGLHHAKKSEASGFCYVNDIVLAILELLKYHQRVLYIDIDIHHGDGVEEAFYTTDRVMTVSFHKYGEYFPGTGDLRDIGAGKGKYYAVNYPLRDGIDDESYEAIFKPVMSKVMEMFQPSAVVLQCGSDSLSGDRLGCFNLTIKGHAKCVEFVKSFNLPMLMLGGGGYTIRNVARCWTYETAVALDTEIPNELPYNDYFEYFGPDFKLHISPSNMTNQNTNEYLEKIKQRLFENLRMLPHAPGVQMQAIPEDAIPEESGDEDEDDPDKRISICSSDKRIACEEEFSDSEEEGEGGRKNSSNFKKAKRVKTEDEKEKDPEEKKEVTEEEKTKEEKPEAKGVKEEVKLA

In the case of `CCCN(N)C(=O)c1ccc(Nc2nc(Nc3ccc(N4CCN(C)CC4)c(F)c3)ncc2C)cc1`, in data set [1], it took 11500 nM to reach half-maximal inhibition (IC50 at 48 h). In addition, the selectivity ratio in data set [2] came out at 2.5. Moreover, the IC50 in data set [3] is 4500 nM; in data set [4] it was 2360 nM; in data set [5], > 5000 nM; in data set [6], 10.4 nM.
For `Cc1cnc(Nc2ccc(/C=C/C(=O)NO)cc2)nc1Nc1ccc(Cl)c(NS(=O)(=O)C(C)(C)C)c1`, it took 28600 nM to reach half-maximal inhibition in [1] (IC50 at 48 h). Further, the selectivity ratio in [2] was determined as 7.1. For the same compound, the IC50 in data set [3] is 3400 nM; in data set [4], 1290 nM; in data set [5], 380 nM; in data set [6], 14.6 nM.
On to `Cc1cnc(Nc2ccc(N3CCN(C)CC3)c(F)c2)nc1Nc1ccc(C(=O)Nc2ccccc2N)cc1`, for which the 50% inhibitory concentration (IC50) at 48 h in data set [1] was 9700 nM. Also, the selectivity ratio in data set [2] was found to be 4.4. Besides, the IC50 was 2200 nM in data set [3], 1810 nM in data set [4], > 5000 nM in [5] and 5.9 nM in [6].
For the compound `Cc1cnc(Nc2ccc(OCCN3CCCC3)cc2)nc1Nc1cccc(S(=O)(=O)NC(C)(C)C)c1` [FEDRATINIB], the peak concentration (Cmax) turned out to be 4430 ng/mL in data set [7] and 9750 ng/mL in data set [12]. Also, the “fold change (FC)” value in [8] stood at 1.1; in [9] it was 1.3; in data set [10], 0.8; in data set [14], 0.5. Moreover, the Vdss in [11] is 8.74 L/kg. For the same compound, the IC50 at 48 h in data set [1] amounted to 890 nM; in data set [18] it was 610 nM. Also, in [13], the Tmax is 4.8 min. Besides, the Activity result in [15] is “Toxic”; in data set [16] it was “Non-Toxic”; in data set [22], “Toxic”. The bioavailability in data set [17] was found to be 102%. Also, the IC50 turned out to be 1400 nM in data set [3] and 460 nM in [23]. The AUC(0-t) at 24 h in [19] was found to be 14500 ng·h/mL. In data set [20], the “MRT(t)” value turned out to be 113 min. The compound also came in with an AUCt in data set [21] of 2825 ng·h/mL. Also, the inhibition in vivo at 25 mg/kg/day in data set [24] amounted to 32%. Besides, the half-life in data set [25] is 173 min; in [28] it was 5.6 min. This compound also returned a t1/2 in [26] of 327 min. Besides, the CLint scaled in data set [27] came to 976 mL/min/kg. In [29], this compound came in with an MRT last at 24 h of 140 min.
Turning to `O=C(CCCCCCC(=O)Nc1ccccc1)NO` [VORINOSTAT], the Cmax in data set [7] is 6640 ng/mL; in data set [12] it was 3930 ng/mL. In addition, the Vdss in data set [11] turned out to be 1.59 L/kg. In addition, in data set [13], the time of peak concentration (Tmax) was determined as 4.8 min. For the same compound, the bioavailability in data set [17] came to 65%. In data set [19], this compound displayed an AUC(0-t) at 24 h of 2550 ng·h/mL. For the same compound, in data set [20], the “MRT(t)” value came to 7.2 min. In addition, in [21], the AUCt stood at 783 ng·h/mL. Besides, in data set [25], the half-life was 81 min. The compound also displayed a t1/2 in data set [26] of 17.4 min. Besides, the MRT last at 24 h in data set [29] was 40.2 min.
